Results: article PMC7577563 (Journal of medicinal chemistry, 2019)
Square brackets hold non-standard residues; d marks the D form. Peptide text beside a SMILES is read from it. Tyr(SO2F) = N[C@@H](Cc1ccc(OS(=O)(=O)F)cc1)C(=O)O; NMeA = CN[C@@H](C)C(=O)O

Columns and labels:
Plasma stability = assay type: in vitro ADME; conditions: mouse plasma

| Compound | Aqueous stability at physiological pH (Chemical) | Plasma stability (Plasma stability) |
| --- | --- | --- |
| CN[C@@H](C)C(=O)N[C@@H](CNCc1ccc(S(=O)(=O)F)cc1)C(=O)N1CCC[C@H]1C(=O)N[C@@H](Cc1ccccc1)C(N)=O [Compound 3] | intermediate stability | – |
| CN[C@@H](C)C(=O)N[C@@H](Cc1ccc(OS(=O)(=O)F)cc1)C(=O)N1CCC[C@H]1C(=O)N[C@@H](Cc1ccccc1)C(N)=O [Compound 4] (H-[NMeA][Tyr(SO2F)]PF-NH2) | the most stable | – |
| CN[C@@H](C)C(=O)N[C@@H](CNC(=O)c1ccc(S(=O)(=O)F)cc1)C(=O)N1CCC[C@H]1C(=O)N[C@@H](Cc1ccccc1)C(N)=O [Compound 2] | the least stable | – |
| CN[C@@H](C)C(=O)N[C@@H](CNCc1ccc(S(=O)(=O)F)cc1)C(=O)N1CCC[C@H]1C(=O)N[C@@H]1CCc2c(F)cccc21 [Compound 11, 4-((((S)-3-((S)-2-(((R)-4-fluoro-2,3-dihydro-1H-inden-1-yl)carbamoyl)pyrrolidin-1-yl)-2-((S)-2(methylamino)propanamido)-3-oxopropyl)amino)methyl)benzenesulfonyl fluoride] | – | completely degraded in plasma after 40 minutes |
